For assay [1], the target named is T1, hMAO-B (Homo sapiens, UniProt P27338).
T1 construct: purchased Sigma-Aldrich; host or cells: insect cells (BTI-TN-5B1-4), recombinant baculovirus
T1 sequence (P27338 1-520): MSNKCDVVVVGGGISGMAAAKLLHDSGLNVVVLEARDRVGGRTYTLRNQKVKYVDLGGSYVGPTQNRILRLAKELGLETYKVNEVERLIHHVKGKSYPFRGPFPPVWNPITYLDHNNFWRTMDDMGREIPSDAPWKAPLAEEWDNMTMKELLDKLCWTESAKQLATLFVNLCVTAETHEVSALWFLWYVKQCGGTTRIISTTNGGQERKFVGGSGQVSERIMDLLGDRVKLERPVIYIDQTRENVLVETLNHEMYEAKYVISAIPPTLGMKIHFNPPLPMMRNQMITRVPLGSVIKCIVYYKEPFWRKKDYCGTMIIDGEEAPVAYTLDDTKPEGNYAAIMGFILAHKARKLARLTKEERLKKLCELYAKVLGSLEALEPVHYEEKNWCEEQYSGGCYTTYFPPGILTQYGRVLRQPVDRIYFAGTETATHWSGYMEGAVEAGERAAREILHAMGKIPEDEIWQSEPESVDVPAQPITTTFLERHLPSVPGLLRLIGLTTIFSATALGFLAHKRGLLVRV
The experiment in a line: In vitro hMAO-B inhibition, spectrophotometric Kynuramine deamination assay. It is filed as biochemical. On the procedure: (§1) To this end, a spectrophotometric method based on the oxidative deamination of Kynuramine by recombinant hMAO-A or hMAO-B was used.
(§2) The inhibitory activity of Bergamottin on hMAO-A and hMAO-B was studied using an experimental protocol described elsewhere. The hMAO inhibitory activity was assessed in microsomal MAO isoforms prepared from insect cells (BTI-TN-5B1-4) infected with recombinant baculovirus containing cDNA inserts for hMAO-A or hMAO-B, and by measuring the enzymatic conversion rates of Kynuramine into 4-hydroxyquinoline. […] All assays were performed in sodium phosphate buffer solution 50 mM pH 7.4.
(§3) Then, the reaction was started with the addition of hMAO-A or hMAO-B. Initial velocities were determined spectrophotometrically in a microplate reader (BioTek Synergy HT from BioTek Instruments, Winooski, VT, USA) at 37 °C by measuring the formation of 4-hydroxyquinoline at 316 nm, over a period of at least 30 min (interval of 1 min). Data were analyzed using GraphPad PRISM version 6 for Windows (GraphPad Software®, San Diego, CA, USA). […] IC50 values were obtained from dose–response curves and were expressed as mean ± standard deviation. IC50 values were determined from at least three independent experiments, each performed in triplicate. […]

Assay [2] deals with T2, hMAO-A (Homo sapiens, UniProt P21397).
T2 construct: purchased Sigma-Aldrich; host or cells: insect cells (BTI-TN-5B1-4), recombinant baculovirus
T2 sequence (P21397 1-527): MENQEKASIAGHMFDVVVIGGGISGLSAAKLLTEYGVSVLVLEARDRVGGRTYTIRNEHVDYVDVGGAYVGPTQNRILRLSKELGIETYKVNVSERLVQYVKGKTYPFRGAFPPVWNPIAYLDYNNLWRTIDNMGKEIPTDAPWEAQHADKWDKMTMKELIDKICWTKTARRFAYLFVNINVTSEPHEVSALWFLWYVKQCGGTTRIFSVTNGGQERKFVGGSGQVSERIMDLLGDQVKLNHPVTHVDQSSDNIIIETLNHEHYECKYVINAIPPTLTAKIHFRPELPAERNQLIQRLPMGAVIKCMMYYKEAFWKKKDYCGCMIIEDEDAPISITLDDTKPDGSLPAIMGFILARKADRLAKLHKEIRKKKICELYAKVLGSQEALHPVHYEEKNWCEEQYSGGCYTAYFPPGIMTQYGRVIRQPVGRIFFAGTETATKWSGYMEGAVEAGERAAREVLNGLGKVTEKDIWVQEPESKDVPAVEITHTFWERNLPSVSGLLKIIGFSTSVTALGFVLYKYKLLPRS
The experiment in a line: In vitro hMAO-A inhibition, spectrophotometric Kynuramine deamination assay. It is filed as biochemical. On the procedure:
as §1, §2, §3

The term IC50 denotes the concentration that gives 50% inhibition. Turning to `CC(C)=CCC/C(C)=C/COc1c2ccoc2cc2oc(=O)ccc12` [Bergamottin], the IC50 in assay [1] (recombinant hMAO-B, Kynuramine substrate) is 0.291 µM; in assay [2] it was 9.25 ± 0.91 µM. In assay [1] (selectivity for hMAO-B over hMAO-A from the IC50 values), the “SI (selectivity index)” value came out at 31.8.

For the origin of these results see publication PMC9030833, “Molecular Modeling and Experimental Evaluation of Non-Chiral Components of Bergamot Essential Oil with Inhibitory Activity against Human Monoamine Oxidases” (Molecules, 2022).
